In patent US5928627A, “Fluorescent chelates as visual tissue specific imaging agents” (The Dow Chemical Company, priority 1997, dated 1999):
“Also recorded” adds a separate entry of the source. Where two headings read alike, the source gives them in different places.

Tests used:
[1] = system: rat bone and intestinal tissues; settings: in vivo
[2] = system: colon adenocarcinoma (1,2 dimethylhydrazine induced tumors); experiment: Fluorescence imaging of normal versus neoplastic colon tissue after lavage; type: in vivo, Sprague Dawley rat; settings: 0.1 mmol/kg, 20 minutes
Procedure: Tumors were induced in Sprague Dawley rats via injection of 1,2 dimethylhydrazine dihydrochloride and the subsequent feeding of a high fat, meat-based diet. […] One animal with an observable lesion was anesthetized, allowing it to respire during lavage introduction of the fluorescent marker. An aqueous solution of Tb-PTCMB at a concentration of 0.1 mmol/kg animal body weight, was administered to a Sprague Dawley rat using the 1.0 mm working lumen of the micro-endoscope. Introduction of the marker solution was made at the site of the suspect tissue mass with a volume necessary to fill the entire large intestine (method described in U.S. Pat. No. 5,456,245). […]
Upon dissection of the large intestine, a large occlusive mass approximately 4.5 cm by 5.0 cm was found approximately 15 cm from the rectum. […] Four slides from each tissue region were first left unstained for fluorescence microscopy imaging as described below and then stained with Hematoxylin and Eosin (H&E stain). Using standard histological criteria for diagnosis, tissue taken from the suspect site was determined to be adenocarcinoma. […] The tissue taken from a location removed from the abnormality was determined to be normal.
Using an in-house modified microscope, samples from the suspect and remote regions of the animal were imaged. Shown in FIGS. 10C and 11C are the fluorescence images of the identical regions of the same tissues. […]

HT-29 cells = experiment: Cytotoxicity HT-29 cells (Trypan blue); type: cell-based; settings: 2 mL of 2 mM Tb-PCTMB
Procedure: HT-29 cell lines were obtained from American Type Culture Collection (ATCC) and maintained in Dulbecco's Modified Eagle Medium (DMEM) with 10% fetal bovine serum. Tree days prior to confluence, the cells were inoculated with 2 mL of 2 mM Tb-PCTMB and allowed to grow to confluence. Two days prior to confluence, the unbound TB-PCTMB was removed with four washings of PBS and the cells were removed from the flask with 3 mL of trypsin. The cell suspension was transferred to a centrifuge tube with 12 mL of growth media and spun a 1000 g for 10 minutes to pellet the cells. The media and the trypsin were removed and the cell suspension was resuspended in 5 mL of media. For ease in counting, 100 μL of the cell suspension was mixed with 100 μL of media in a microfuge tube. Fifty μL of this dilution was mixed with 50 μL of Trypan blue stain and loaded into the hemocytometer. The cells in 5 squares on the hemocytometer were counted where stained cells were dead and unstained cells were alive. Multiplication of the average count per square by the dilution factor (4) gave the number of cells×10^4 per mL. The number of cells reported is the average of three individual counts.

IEC-6 cells = experiment: Cytotoxicity IEC-6 cells; type: cell-based
Excerpt: *Average of triplicate counting. Procedure detailed in Ref. 27

[3] = system: rat bone and intestinal tissues; experiment: Tissue fluorescence microscopy/tissue selectivity of Tb chelates in rats
rat bone (femur) = experiment: Micro-endoscopic fluorescence imaging of rat femur; type: in vivo
Excerpt: The optical train used is depicted in FIG. 5. For the resolution studies a 1951 USAF resolution target was used. The resolution target consists of groups of elements (lines) that are a known width, length and distance apart. The lines on the target are made from a black emulsion deposited onto a white positive background (clear glass). The images are obtained by back illuminating the resolution target using an IR filtered xenon discharge lamp. The beam from an optical fiber passes through a diffuser of in-house construction which replaces the 270 nm interference filter (4) shown in FIG. 5. The distance of the scope tip from the target (1.5 mm) was chosen so that the best in-focus image is produced. The image was collected by a 0°, 30° and 60° viewing angle with respect to the central axis of the thin rod lens endoscope. A 10× microscope objective, placed 10 mm from the endoscope, collected, magnified and played the image onto a CCD (5). […] The software produces a graph of light intensity as a function of position across the line pairs. The limiting resolution (LP/mm) is calculated using a aerial image modulation (AIM) plot and is defined as the point where the dI/dx remains constant.
Field of view measurements were made by repositioning the target so that a single line laterally spanned the field of view of the endoscope. The circular field of view is easily calculated knowing the length of the line on the resolution target the represents the diameter of the viewing zone. […]
For analysis of the bone fluorescence, two rats were injected with Tb-PCTMP or Tb-BP2P. […]
For the fluorescence measurements, the instrument in FIG. 5 was modified. […] A 550 nm bandpass filter was placed between the microscope objective (3) and the CCD (5) to select fluorescence and block background light. […]
Upon visual inspection of the high resolution video monitor (7), resolution of 181 LP/mm can be obtained. […] As calculated in a manner similar to Example II, it is possible to estimate the quantity of solute within a particular imaged zone. […]

UMR106 cells = experiment: Subcellular uptake fluorescence in UMR106 cells (organelle and membrane smears); type: cell-based; settings: 2 mL of 2×10^-3 M
Procedure: UMR106 cells were obtained from American Type Culture Collection and maintained in Basal Eagle Media with 10% fetal bovine serum. Cells were propagated so that 3×10^7 cells were contained in 25 mL. One day prior to confluence, the cells were inoculated with 2 mL of 2×10^-3 M Tb-PCTMP. At confluence, the media and Tb-TCTMP was removed with four washings of PBS. Cells were separated from the flask with 3 mL of trypsin, transferred to a centrifuge tube with 12 mL of media and spun at 1000 g for 10 minutes to pellet the cells. The pellet was resuspended in 2 mL of media and frozen by submersion of the tube into liquid nitrogen. The frozen mixture was scooped out of the tube and transferred to a mortar. To the mixture, an equal weight of sea sand and 10 mL of liquid nitrogen were added. This mixture was ground with a pestle for 30 minutes until liquefied. The resulting mixture was transferred to a centrifuge tube and spun at 10,000 rpm for 15 minutes leaving intact cells, sand and membranes in the pellet and the cytoplasmic organelles in the supernatant. The supernatant was spun at 45,000 rpm for 90 minutes in an ultracentrifuge tube to pellet the organelles. […] Both the membranes and the organelles were smeared onto microscope slides and analyzed using a Zeiss microscope, modified for UV excitation.

[4] = Fluorescence properties of the complexes; type: physicochemical; settings: excited with a UV lamp
Excerpt: The use of terbium (Tb) or europium (Eu) as the central metal ion to render a tissue specific fluorescent probe is very appealing. Derivatives of this type would be valuable for visual assessment of tissue conditions such as early detection of cancer and would not depend upon protein conjugation to reach their target. Furthermore, concentration of the active fluorescent material could conceivably be much higher than in the case of immunoassays making detection much easier. The present complexes have an excitation band of 250 to 290 nm and a spike emission with peaks at bands of 490 to 510 nm, 540 to 560 nm, 590 to 600 nm and 615 to 635 nm, high quantum efficiency and millisecond relaxation lifetimes which allow signal collection after prompt tissue autofluorescence has subsided and allows data collection outside the range for normal tissue fluorescence. […] Furthermore, chelates derived from this family of macrocyclic ligands are among the most thermodynamically and kinetically inert lanthanide complexes, a paramount consideration for biological studies where metal ion toxicity is of major importance.

## O=P(O)(O)CN1Cc2cccc(n2)CN(CP(=O)(O)O)Cc2cccc(n2)C1.[Tb] [Tb-BP2P, terbium N,N'-bis(methylenephosphonic acid)-2,11,diaza[3.3]-(2,6)pyridinophane]
[1]
  distribution of the chelate in bone: fairly uniform

## CCCCOP(=O)(O)CN1CCN(CP(=O)(O)OCCCC)Cc2cccc(n2)CN(CP(=O)(O)OCCCC)CC1.[Tb] [Tb-PCTMB, terbium 3,6,9-tris(methylenephosphonic acid n-butyl ester)-3,6,9,15, tetraazabicyclo[9.3.1]pentadeca-1(15),11,13-triene]
[2]
  relative difference between the quantity of marker solute in normal versus neoplastic tissue: an order of magnitude
  uptake by abnormal colon tissue: preferential or enhanced uptake
HT-29 cells; average of triplicate counting, control 5.30 × 10^6
  Total (Cells/ml): 4.70 × 10^6 Cells/ml
HT-29 cells; control 5.7%
  Dead Cells: 8.5%
HT-29 cells; control 94.3%
  Live Cells: 91.5%
IEC-6 cells; average of triplicate counting, control 5.70 × 10^6
  Total Cells: 5.30 × 10^6
IEC-6 cells; control 10.5%
  Dead Cells: 9.4%
IEC-6 cells; control 89.5%
  Live Cells: 90.6%
[1]
  interactions between the chelate and blood proteins: enhances interactions between the chelate and blood proteins
[3]
  tissue uptake/selectivity: substantial hepatobiliary uptake; also recorded: concentrates in the small intestine

## O=P(O)(O)CN1CCN(CP(=O)(O)O)Cc2cccc(n2)CN(CP(=O)(O)O)CC1.[Tb] [Tb-PCTMP, terbium 3,6,9-tris(methylenephosphonic acid)-3,6,9,15-tetraazabicyclo[9.3.1]pentadeca-1(13),11,13-triene]
Rat bone (femur); excised rat femur, FIG. 8
  quantity per pixel, blue-purple contour: 1.54×10^-15 moles Tb-PCTMP/pixel
  quantity per pixel, red contour: 3.35×10^-15 moles Tb-PCTMP/pixel
Rat bone (femur); rat femur, 2 hours
  solute present in entire imaged region of the bone (surface): about 5.19 picomoles
UMR106 cells; control no discernible fluorescence
  fluorescence in the organelle smear of dosed cells: significant fluorescence was detected
UMR106 cells; dosed and control cells
  fluorescence in the membrane smears: No signal was detected
[4]
  visible emission of the isolated complex: brilliant green visible emission
[1]
  tissue uptake/selectivity: skeletal system uptake
